Measured values from ChEMBL document CHEMBL3885861, “Open TG-GATES”.

Species: Rattus norvegicus
Test: Open TG-GATES - Regimen: Daily Repeat
Type: toxicity, organism-based, Sprague-Dawley
Design: regimen Daily Repeat, gender Male, age 6 weeks
Conditions: in vivo, po, route gavage; for Bas / Eos / Fbg / Hb / Ht / Lym / MCV / Mono / Neu / PT / Plat / RBC / Ret / WBC / APTT / MCH / MCHC: tissue Blood; for KIDNEY_L / KIDNEY_R / KIDNEY_TOTAL: tissue Kidney; for LIVER: tissue Liver; for ALP / ALT / AST / BUN / CRE / DBIL / GLC / IP / K / LDH / Na / PL / RALB / TBIL / TC / TG / TP / gamma-GTP / Ca: tissue Plasma
[1] = 300 mg/kg, 72 h, dose level Middle, time 3 day
[2] = 300 mg/kg, […], dose level Middle, time 7 day
[3] = 300 mg/kg, […], dose level Middle, time 14 day
[4] = 300 mg/kg, […], dose level Middle, time 28 day
[5] = 1000 mg/kg, 72 h, dose level High, time 3 day
[6] = 1000 mg/kg, […], dose level High, time 7 day
[7] = 1000 mg/kg, […], dose level High, time 14 day
[8] = 1000 mg/kg, […], dose level High, time 28 day

Structure (SMILES): O=C(O)c1cn(C2CC2)c2cc(N3CCNCC3)c(F)cc2c1=O [CIPROFLOXACIN]
- Bas [1]: 0%
- Eos [1]: 1%
- Fbg [1]: 217 mg/dL
- Hb [1]: 13 g/dL
- Ht [1]: 38.7%
- Lym [1]: 78.4%
- MCV [1]: 63.5 fL
- Mono [1]: 6%
- Neu [1]: 14.4%
- PT [1]: 12.4 s
- Plat [1]: 103.1 x10_4/uL
- RBC [1]: 609 x10_4/ul
- Ret [1]: 6.9%
- WBC [1]: 87 x10_2/uL
- KIDNEY_L [1]: 0.9 g
- KIDNEY_R [1]: 0.9 g
- KIDNEY_TOTAL [1]: 1.8 g
- LIVER [1]: 8.6 g
- ALP [1]: 998 IU/L
- ALT [1]: 37.8 IU/L
- AST [1]: 68.4 IU/L
- BUN [1]: 16.4 mg/dL
- CRE [1]: 0.5 mg/dL
- DBIL [1]: 0.014 mg/dL
- GLC [1]: 182 mg/dL
- IP [1]: 9.1 mg/dL
- K [1]: 5 meq/L
- LDH [1]: 81 IU/L
- Na [1]: 140.4 meq/L
- PL [1]: 148.8 mg/dL
- RALB [1]: 3.8 g/dL
- TBIL [1]: 0.3 mg/dL
- TC [1]: 91 mg/dL
- TG [1]: 49.4 mg/dL
- TP [1]: 5.8 g/dL
- gamma-GTP [1]: 2.2 IU/L
- TERMINAL_BW [2]: 237.8 g
- TERMINAL_BW [3]: 282.8 g
- TERMINAL_BW [4]: 378.4 g
- APTT [2]: 16 s
- Bas [2]: 0%
- Eos [2]: 0.6%
- Fbg [2]: 218.5 mg/dL
- Hb [2]: 13.2 g/dL
- Ht [2]: 39.7%
- Lym [2]: 80.4%
- MCH [2]: 21.4 pg
- MCHC [2]: 33.4%
- MCV [2]: 64 fL
- Mono [2]: 4.8%
- Neu [2]: 14%
- PT [2]: 12.4 s
- Plat [2]: 98.1 x10_4/uL
- RBC [2]: 620.2 x10_4/ul
- Ret [2]: 6.7%
- WBC [2]: 128.7 x10_2/uL
- APTT [3]: 16.4 s
- Bas [3]: 0%
- Eos [3]: 1%
- Fbg [3]: 251 mg/dL
- Hb [3]: 13.9 g/dL
- Ht [3]: 41.6%
- Lym [3]: 83.4%
- MCH [3]: 20.4 pg
- MCHC [3]: 33.4%
- MCV [3]: 61.2 fL
- Mono [3]: 5%
- Neu [3]: 10.6%
- PT [3]: 10 s
- Plat [3]: 117.4 x10_4/uL
- RBC [3]: 680.8 x10_4/ul
- Ret [3]: 6.4%
- WBC [3]: 162 x10_2/uL
- APTT [4]: 16.7 s
- Bas [4]: 0%
- Eos [4]: 0.8%
- Fbg [4]: 245.2 mg/dL
- Ht [4]: 44%
- Lym [4]: 83.2%
- MCH [4]: 19.3 pg
- MCHC [4]: 33.2%
- MCV [4]: 58.1 fL
- Mono [4]: 5%
- Neu [4]: 10.8%
- Plat [4]: 100 x10_4/uL
- RBC [4]: 756.8 x10_4/ul
- Ret [4]: 3.2%
- WBC [4]: 123.6 x10_2/uL
- KIDNEY_L [2]: 1 g
- KIDNEY_R [2]: 1 g
- KIDNEY_TOTAL [2]: 2.1 g
- KIDNEY_L [3]: 1.1 g
- KIDNEY_R [3]: 1.1 g
- KIDNEY_TOTAL [3]: 2.3 g
- KIDNEY_L [4]: 1.3 g
- KIDNEY_R [4]: 1.3 g
- KIDNEY_TOTAL [4]: 2.6 g
- LIVER [2]: 10.8 g
- LIVER [3]: 12.3 g
- LIVER [4]: 16 g
- ALP [2]: 917.6 IU/L
- AST [2]: 66.4 IU/L
- BUN [2]: 20 mg/dL
- CRE [2]: 0.5 mg/dL
- Ca [2]: 11.4 mg/dL
- DBIL [2]: 0.004 mg/dL
- GLC [2]: 173.8 mg/dL
- IP [2]: 9 mg/dL
- K [2]: 4.9 meq/L
- LDH [2]: 65.2 IU/L
- Na [2]: 141.6 meq/L
- PL [2]: 160.8 mg/dL
- RALB [2]: 4 g/dL
- TBIL [2]: 0.3 mg/dL
- TC [2]: 90 mg/dL
- TG [2]: 86.6 mg/dL
- TP [2]: 5.8 g/dL
- gamma-GTP [2]: 1.2 IU/L
- ALP [3]: 973.2 IU/L
- ALT [3]: 31.6 IU/L
- AST [3]: 59.2 IU/L
- BUN [3]: 20.4 mg/dL
- CRE [3]: 0.6 mg/dL
- Ca [3]: 11 mg/dL
- DBIL [3]: 0.008 mg/dL
- GLC [3]: 184.8 mg/dL
- IP [3]: 7.8 mg/dL
- K [3]: 4.8 meq/L
- LDH [3]: 83.4 IU/L
- Na [3]: 139 meq/L
- PL [3]: 160 mg/dL
- RALB [3]: 4 g/dL
- TBIL [3]: 0.3 mg/dL
- TG [3]: 105.8 mg/dL
- TP [3]: 6 g/dL
- gamma-GTP [3]: 2.8 IU/L
- ALP [4]: 655 IU/L
- ALT [4]: 33.8 IU/L
- AST [4]: 59.4 IU/L
- BUN [4]: 19.8 mg/dL
- CRE [4]: 0.4 mg/dL
- DBIL [4]: 0.004 mg/dL
- GLC [4]: 180.8 mg/dL
- IP [4]: 7.7 mg/dL
- K [4]: 4.4 meq/L
- LDH [4]: 102.2 IU/L
- Na [4]: 140.6 meq/L
- PL [4]: 172 mg/dL
- RALB [4]: 4.1 g/dL
- TBIL [4]: 0.3 mg/dL
- TC [4]: 82.6 mg/dL
- TG [4]: 184.6 mg/dL
- TP [4]: 6.6 g/dL
- gamma-GTP [4]: 1 IU/L
- TERMINAL_BW [5]: 203.7 g
- APTT [5]: 18.7 s
- Bas [5]: 0%
- Eos [5]: 1%
- Fbg [5]: 222 mg/dL
- Hb [5]: 12.8 g/dL
- Ht [5]: 38.4%
- Lym [5]: 83.2%
- MCH [5]: 21.2 pg
- MCHC [5]: 33.4%
- Mono [5]: 6%
- Neu [5]: 10%
- PT [5]: 12.3 s
- Plat [5]: 101.1 x10_4/uL
- RBC [5]: 603.4 x10_4/ul
- Ret [5]: 6%
- WBC [5]: 121.3 x10_2/uL
- KIDNEY_L [5]: 0.9 g
- KIDNEY_R [5]: 1 g
- KIDNEY_TOTAL [5]: 1.9 g
- LIVER [5]: 9.6 g
- ALP [5]: 962.6 IU/L
- ALT [5]: 39 IU/L
- AST [5]: 65.2 IU/L
- BUN [5]: 16.8 mg/dL
- CRE [5]: 0.5 mg/dL
- Ca [5]: 11.2 mg/dL
- DBIL [5]: 0.004 mg/dL
- GLC [5]: 183.2 mg/dL
- IP [5]: 9.4 mg/dL
- K [5]: 4.9 meq/L
- LDH [5]: 143.2 IU/L
- Na [5]: 140.6 meq/L
- PL [5]: 139.2 mg/dL
- RALB [5]: 3.8 g/dL
- TBIL [5]: 0.2 mg/dL
- TC [5]: 86 mg/dL
- TP [5]: 5.7 g/dL
- gamma-GTP [5]: 1.4 IU/L
- TERMINAL_BW [6]: 228.1 g
- TERMINAL_BW [7]: 267.6 g
- TERMINAL_BW [8]: 381.8 g
- APTT [6]: 16 s
- Bas [6]: 0%
- Eos [6]: 0.8%
- Fbg [6]: 231.8 mg/dL
- Hb [6]: 13.5 g/dL
- Ht [6]: 40.4%
- Lym [6]: 81.2%
- MCH [6]: 21.1 pg
- MCHC [6]: 33.5%
- MCV [6]: 63 fL
- Mono [6]: 5.4%
- Neu [6]: 12.8%
- Plat [6]: 106.3 x10_4/uL
- RBC [6]: 640.8 x10_4/ul
- Ret [6]: 6.4%
- WBC [6]: 154.8 x10_2/uL
- APTT [7]: 16.2 s
- Bas [7]: 0%
- Eos [7]: 0.8%
- Fbg [7]: 255.2 mg/dL
- Hb [7]: 14.3 g/dL
- Ht [7]: 43%
- Lym [7]: 82.8%
- MCH [7]: 20.4 pg
- MCHC [7]: 33.2%
- MCV [7]: 61.6 fL
- Mono [7]: 4.4%
- Neu [7]: 12.4%
- PT [7]: 10.2 s
- Plat [7]: 97.3 x10_4/uL
- RBC [7]: 699.2 x10_4/ul
- Ret [7]: 5.7%
- WBC [7]: 139.4 x10_2/uL
- Bas [8]: 0%
- Eos [8]: 1%
- Fbg [8]: 248 mg/dL
- Hb [8]: 14.7 g/dL
- Lym [8]: 85%
- MCH [8]: 19.5 pg
- MCHC [8]: 33.5%
- MCV [8]: 58.2 fL
- Mono [8]: 3.4%
- Neu [8]: 10.8%
- Plat [8]: 110.7 x10_4/uL
- RBC [8]: 757.8 x10_4/ul
- Ret [8]: 3.5%
- WBC [8]: 156.8 x10_2/uL
- KIDNEY_L [6]: 1 g
- KIDNEY_R [6]: 1 g
- KIDNEY_TOTAL [6]: 2 g
- KIDNEY_L [7]: 1.1 g
- KIDNEY_R [7]: 1.1 g
- KIDNEY_TOTAL [7]: 2.2 g
- KIDNEY_L [8]: 1.4 g
- KIDNEY_R [8]: 1.4 g
- KIDNEY_TOTAL [8]: 2.8 g
- LIVER [6]: 10.5 g
- LIVER [7]: 11 g
- LIVER [8]: 15 g
- ALP [6]: 850.4 IU/L
- AST [6]: 64 IU/L
- BUN [6]: 21.2 mg/dL
- CRE [6]: 0.5 mg/dL
- Ca [6]: 11.5 mg/dL
- DBIL [6]: 0 mg/dL
- GLC [6]: 182.4 mg/dL
- IP [6]: 9.6 mg/dL
- K [6]: 5.1 meq/L
- LDH [6]: 96.8 IU/L
- Na [6]: 141 meq/L
- PL [6]: 158.8 mg/dL
- RALB [6]: 3.8 g/dL
- TBIL [6]: 0.2 mg/dL
- TC [6]: 86 mg/dL
- TG [6]: 90.2 mg/dL
- TP [6]: 5.8 g/dL
- gamma-GTP [6]: 1.6 IU/L
- ALP [7]: 871.8 IU/L
- AST [7]: 61.4 IU/L
- BUN [7]: 22.8 mg/dL
- CRE [7]: 0.6 mg/dL
- DBIL [7]: 0.03 mg/dL
- GLC [7]: 182.6 mg/dL
- IP [7]: 7.8 mg/dL
- K [7]: 4.8 meq/L
- LDH [7]: 171.8 IU/L
- Na [7]: 139.2 meq/L
- PL [7]: 169 mg/dL
- RALB [7]: 4 g/dL
- TBIL [7]: 0.2 mg/dL
- TC [7]: 92 mg/dL
- TP [7]: 6.1 g/dL
- gamma-GTP [7]: 1.8 IU/L
- ALP [8]: 690 IU/L
- ALT [8]: 32.4 IU/L
- AST [8]: 51.8 IU/L
- BUN [8]: 19.4 mg/dL
- CRE [8]: 0.4 mg/dL
- Ca [8]: 11.2 mg/dL
- DBIL [8]: 0.022 mg/dL
- GLC [8]: 180.6 mg/dL
- IP [8]: 7.5 mg/dL
- K [8]: 4.4 meq/L
- LDH [8]: 160.6 IU/L
- Na [8]: 140.2 meq/L
- PL [8]: 173 mg/dL
- RALB [8]: 4.1 g/dL
- TBIL [8]: 0.2 mg/dL
- TC [8]: 96 mg/dL
- TG [8]: 102 mg/dL
- TP [8]: 6.6 g/dL
- gamma-GTP [8]: 2.4 IU/L
